Converted amounts (≈) assume the structure as drawn.
Legend:
oral toxicity in mice = details: mouse, in vivo, oral administration, read-out: oral dosage tolerated without exhibiting toxic symptoms
Method: The new cephalosporin derivative of this invention may be administered orally at a unit dose of 100 mg to 250 mg to an adult human patient four times a day, for a guideline. However, precise dosage of the new cephalosporin is determinable through preliminary routine experiments, depending on the body weight, ages, sex and other various parameters of patients as well as the nature of the bacterial infections to be treated, and so on.

[1] = test system: Citrobacter freundii GN346/16; test: antibacterial activity, MIC by standard serial dilution method; format: cell-based
Source text: (§1) Antibacterial activity of Compounds Nos. 1, 3, 5, 7, 9, 11, 13, 15, 17, 19, 21, 23, 25, 27, 29, 31, 33, 35 and 37 indentified hereinbefore which are the particular examples of the new cephalosporin derivative of general formula (I) according to this invention and which are in the form of the free carboxylic acid was estimated by determining the minimum inhibitory concentrations (MIC., μg/ml) of these compounds against a variety of bacteria according to a standard serial dilution method.

[2] = test system: Citrobacter freundii GN346; test: as above; format: cell-based
Source text: as §1

[3] = test system: Enterobacter cloacae G-0008; test: as above; format: cell-based; details: G0008
Source text: as §1

[4] = test system: Enterobacter cloacae GN7471; test: as above; format: cell-based
Source text: as §1

[5] = test system: Enterobacter hirae ATCC8043; test: as above; format: cell-based
Source text: as §1

[6] = test system: Entrobacter faecalis W-73; test: as above; format: cell-based
Source text: as §1

Escherichia coli 255/S-1 = test: as above; format: cell-based; details: 255/S1
Source text: as §1

Escherichia coli 255 = test: as above; format: cell-based
Source text: as §1

Escherichia coli GN206 = test: as above; format: cell-based
Source text: as §1

[7] = test system: Escherichia coli NIHJ JC-2; test: as above; format: cell-based; details: NIHJJC2
Source text: as §1

[8] = test system: Escherichia coli W3630 RGN823; test: as above; format: cell-based; details: W3630RGN823
Source text: as §1

[9] = test system: Klebsiella pneumoniae GN69; test: as above; format: cell-based
Source text: as §1

[10] = test system: Klebsiella pneumoniae PCI602; test: as above; format: cell-based
Source text: as §1

[11] = test system: Marganella morganii 1510/S-1; test: as above; format: cell-based
Source text: as §1

Marganella morganii 1510 = test: as above; format: cell-based
Source text: as §1

[12] = test system: Proteus vulgaris GN76/C-1; test: as above; format: cell-based
Source text: as §1

Proteus vulgaris GN76 = test: as above; format: cell-based
Source text: as §1

[13] = test system: Pseudomonas aeruginosa GN10362; test: as above; format: cell-based
Source text: as §1

[14] = test system: Serratia marcescens GN10857; test: as above; format: cell-based
Source text: as §1

[15] = test system: Serratia marcescens No. 1; test: as above; format: cell-based
Source text: as §1

[16] = test system: Staphylococcus aureus 209P JC-1; test: as above; format: cell-based
Source text: as §1

[17] = test system: Staphylococcus epidermidis ATCC14990; test: as above; format: cell-based
Source text: as §1

SMILES	MIC [1] [µg/mL]	MIC [2] [µg/mL]	MIC [3] [µg/mL]	MIC [4] [µg/mL]	MIC [5] [µg/mL]	MIC [6] [µg/mL]	MIC (Escherichia coli 255/S-1) [µg/mL]	MIC (Escherichia coli 255) [µg/mL]	MIC (Escherichia coli GN206) [µg/mL]	MIC [7] [µg/mL]	MIC [8] [µg/mL]	MIC [9] [µg/mL]	MIC [10] [µg/mL]	MIC [11] [µg/mL]	MIC (Marganella morganii 1510) [µg/mL]	MIC [12] [µg/mL]	MIC (Proteus vulgaris GN76) [µg/mL]	MIC [13] [µg/mL]	MIC [14] [µg/mL]	MIC [15] [µg/mL]	further results
CO/N=C(\C(=O)NC1C(=O)N2C(C(=O)OCOC(=O)C(C)(C)C)=C(SCC3COCO3)CS[C@H]12)c1csc(N)n1 (stereo partly drawn) [Compound No. 30, pivaloyloxymethyl 7-[(Z)-2-(2-aminothiazol-4-yl)-2-methoxyiminoacetamido]-3-(1,3-dioxolan-4-yl) methylthio-3-cephem-4-carboxylate]																					NOAEL (oral toxicity in mice): 3000 mg/kg
CO/N=C(\C(=O)NC1C(=O)N2C(C(=O)O)=C(SCC3CCCO3)CS[C@H]12)c1csc(N)n1 (stereo partly drawn) [Compound No. 1, 7-[(Z)-2-(2-aminothiazol-4-yl)-2-methoxyiminoacetamido]-3-tetrahydrofurfurylthio-3-cephem-4-carboxylic acid]	3.13 (≈ 6.27 µM)	> 100	1.56 (≈ 3.12 µM)	50 (≈ 100 µM)	12.5 (≈ 25 µM)	100 (≈ 200 µM)	0.78 (≈ 1.56 µM)	25 (≈ 50 µM)	6.25 (≈ 12.5 µM)	1.56 (≈ 3.12 µM)	1.56 (≈ 3.12 µM)	0.39 (≈ 0.781 µM)	0.78 (≈ 1.56 µM)	0.39 (≈ 0.781 µM)	50 (≈ 100 µM)	3.13 (≈ 6.27 µM)	0.2 (≈ 0.4 µM)	> 100	100 (≈ 200 µM)	0.78 (≈ 1.56 µM)	MIC [16]: 0.2 µg/mL (≈ 0.4 µM); MIC [17]: 0.78 µg/mL (≈ 1.56 µM)
Nc1nc(/C(=N/O)C(=O)NC2C(=O)N3C(C(=O)O)=C(SCC4CCCCO4)CS[C@H]23)cs1 (stereo partly drawn) [Compound No. 25, 7-[(Z)-2-(2-aminothiazol-4-yl)-2-hydroxyiminoacetamido]-3-(tetrahydropyran-2-yl)methylthio-3-cephem-4-carboxylic acid]	12.5 (≈ 25 µM)	> 100	25 (≈ 50 µM)	100 (≈ 200 µM)	12.5 (≈ 25 µM)	12.5 (≈ 25 µM)	12.5 (≈ 25 µM)	100 (≈ 200 µM)	12.5 (≈ 25 µM)	12.5 (≈ 25 µM)	12.5 (≈ 25 µM)	12.5 (≈ 25 µM)	12.5 (≈ 25 µM)	0.78 (≈ 1.56 µM)	100 (≈ 200 µM)	12.5 (≈ 25 µM)	3.13 (≈ 6.27 µM)	> 100	> 100	6.25 (≈ 12.5 µM)	MIC [16]: 1.56 µg/mL (≈ 3.12 µM); MIC [17]: 1.56 µg/mL (≈ 3.12 µM)
CO/N=C(\C(=O)NC1C(=O)N2C(C(=O)O)=C(SCC3COC(C)(C)O3)CS[C@H]12)c1csc(N)n1 (stereo partly drawn) [Compound No. 5, 7-[(Z)-2-(2-aminothiazol-4-yl)-2-methoxyiminoacetamido]-3-(2,2-dimethyl-1,3-dioxolan-4-yl)methylthio-3-cephem-4-carboxylic acid]	6.25 (≈ 11.8 µM)	> 100	3.13 (≈ 5.91 µM)	50 (≈ 94.4 µM)	25 (≈ 47.2 µM)	50 (≈ 94.4 µM)	3.13 (≈ 5.91 µM)	100 (≈ 189 µM)	12.5 (≈ 23.6 µM)	1.56 (≈ 2.95 µM)	1.56 (≈ 2.95 µM)	0.78 (≈ 1.47 µM)	1.56 (≈ 2.95 µM)	0.78 (≈ 1.47 µM)	100 (≈ 189 µM)	1.56 (≈ 2.95 µM)	0.39 (≈ 0.736 µM)	> 100	50 (≈ 94.4 µM)	1.56 (≈ 2.95 µM)	MIC [16]: 1.56 µg/mL (≈ 2.95 µM); MIC [17]: 1.56 µg/mL (≈ 2.95 µM)
CO/N=C(\C(=O)NC1C(=O)N2C(C(=O)O)=C(SCC3COCO3)CS[C@H]12)c1csc(N)n1 (stereo partly drawn) [Compound No. 29, 7 - [(Z)-2-(2-aminothiazol-4-yl)-2-methoxyiminoacetamido]-3-(1,3-dioxolan-4-yl)methylthio-3-cephem-4-carboxylic acid]	3.13 (≈ 6.24 µM)	> 100	0.39 (≈ 0.778 µM)	50 (≈ 99.7 µM)	> 100	> 100	0.39 (≈ 0.778 µM)	50 (≈ 99.7 µM)	6.25 (≈ 12.5 µM)	0.39 (≈ 0.778 µM)	0.78 (≈ 1.56 µM)	0.2 (≈ 0.399 µM)	0.2 (≈ 0.399 µM)	0.39 (≈ 0.778 µM)	50 (≈ 99.7 µM)	6.25 (≈ 12.5 µM)	0.1 (≈ 0.199 µM)	> 100	50 (≈ 99.7 µM)	3.13 (≈ 6.24 µM)	MIC [16]: 1.56 µg/mL (≈ 3.11 µM); MIC [17]: 0.78 µg/mL (≈ 1.56 µM)
CO/N=C(\C(=O)NC1C(=O)N2C(C(=O)O)=C(SCC3CCCCO3)CS[C@H]12)c1csc(N)n1 (stereo partly drawn) [Compound No. 23, 7-[(Z)-2-(2-aminothiazol-4-yl)-2-methoxyiminoacetamido]-3-(tetrahydropyran-2-yl)methylthio-3-cephem-4-carboxylic acid]	6.25 (≈ 12.2 µM)	> 100	3.13 (≈ 6.09 µM)	100 (≈ 195 µM)	25 (≈ 48.7 µM)	> 100	3.13 (≈ 6.09 µM)	50 (≈ 97.3 µM)	6.25 (≈ 12.2 µM)	3.13 (≈ 6.09 µM)	3.13 (≈ 6.09 µM)	1.56 (≈ 3.04 µM)	3.13 (≈ 6.09 µM)	0.78 (≈ 1.52 µM)	50 (≈ 97.3 µM)	1.56 (≈ 3.04 µM)	0.39 (≈ 0.759 µM)	100 (≈ 195 µM)	50 (≈ 97.3 µM)	1.56 (≈ 3.04 µM)	MIC [16]: 3.13 µg/mL (≈ 6.09 µM); MIC [17]: 3.13 µg/mL (≈ 6.09 µM)
